Measured values: the NIST ThermoML archive (doi:10.1016/j.tca.2013.08.001)
± gives the expanded uncertainty stated by the source.

Key:
[1] = DTA
[2] = Molar enthalpy of transition or fusion; conditions: DSC

Triple point temperature ([1]; Crystal 1): 318.08 ± 0.39 K | Triple point temperature ([1]; Crystal 2): 317.22 ± 0.39 K | Molar enthalpy of transition or fusion ([2]; Crystal 1): 48.8 ± 1.6 kJ/mol | Molar enthalpy of transition or fusion ([2]; Crystal 2): 28.9 ± 0.64 kJ/mol
SMILES: CCCCCCCCCCCCCCCCCCCCCC [docosane]
